Assay results: patent US20130317009A1 (priority 2012, published 2013)
Where “and” joins values, the source holds several entries; their conditions need not be identical. Equal entries are not always repeated. Structures can show the parent of a compound that is named as a salt.

Tests used:
rat = assay: animal or person; type: in vivo; settings: for ED50: Rattus norvegicus, 0.25 h, read-out: ED50 (95% CI) second pharmacologically active ingredient
male Sprague-Dawley rats = settings: rat, in vivo

Structure (SMILES)	ED50 (rat; ip)	timepoint of peak effect (rat; rat, in vivo)	ED50 (95% CI) second pharmacologically active ingredient (rat; rat, in vivo, ip)	% MPE (Maximum possible effect) 60 min. (male Sprague-Dawley rats)	% MPE (Maximum possible effect) 180 min. (male Sprague-Dawley rats)	% MPE (Maximum possible effect) 30 min. (male Sprague-Dawley rats; dihydrochloride)
CC[C@@H](C(N)=O)N1CCCC1=O [Levetiracetam, levetiracetam]	986 mg/kg	15 min p. appl.				
NC(=O)N1c2ccccc2C=Cc2ccccc21 [carbamazepine]	30 mg/kg	15 min p. appl.				
Nc1nnc(-c2cccc(Cl)c2Cl)c(N)n1 [lamotrigine]	30 mg/kg	15 min p. appl.	35253 μg/kg and 35253 (38082-32740) μg/kg			
CCOC(=O)Nc1ccc(NCc2ccc(F)cc2)cc1N [retigabine dihydrochloride]	5.09 mg/kg	15 min p. appl.		−2.0 ± 7.9 % MPE	−2.8 ± 8.0 % MPE	23.1 % MPE and 23.1 ± 5.0 % MPE
COC[C@@H](NC(C)=O)C(=O)NCc1ccccc1 [lacosamide]	35.3 mg/kg	15 min p. appl.				
